87 compounds from a melting point compilation (Tetko et al.; mined from patent text by program, amines drawn as free bases though some values may be those of a salt) can be followed below.

Structures are written as SMILES. Where only a bound is given, the exact number is not on record here.

By melting point is commonly meant the temperature of the solid-liquid transition.

Consider `CCCC(Cn1ncnc1S)c1ccc(Cl)cc1Cl` (configuration not stated), for which the melting point turned out to be 103 °C.

The compound `Cc1ccccc1Oc1cccc(C(N)C(=O)O)c1O` (configuration not stated) had a melting point of 170 to 173 °C.

As for `O=C(O)c1nc2cc(-n3cccc3)c([N+](=O)[O-])cc2[nH]c1=O`, the melting point is more than 300 °C.

In turn, `Nc1ccc(NC2CCCCCC2)c([N+](=O)[O-])c1` registered a melting point of 153 °C.

Turning to `COC(=O)c1ccccc1-c1ccc(CNc2nc(C(F)(F)F)nc3ccccc23)cc1`, the melting point was in the range of 135 to 142 °C.

Regarding `CCOc1nn(Cc2ccc(OCc3nc(-c4ccccc4)oc3C)nc2)cc1CCC(=O)O`, the melting point lay within 143 to 144 °C.

Consider `CC(=O)SCSc1cn(C(c2ccccc2)(c2ccccc2)c2ccccc2)nn1`, for which the melting point was 115 to 116 °C.

Compound `Cc1c(NC(=O)CC(C)(C)C)cc2c(c1C)OC(C)(C)C2CCc1ccccc1` (configuration not stated) displayed a melting point of 158 to 159 °C.

Take `COc1ccc(C(=O)NCC(=O)N2c3ccccc3N(Cc3ccccc3)C(=O)[C@H]3CCC[C@H]32)cc1OC` (relative stereo): the melting point lay in the range of 174 to 176 °C.

`CN1C(=O)C(NC(=O)CCc2ccccc2)N=C(N(C)C2CCCCC2)c2ccccc21` (configuration not stated): the melting point was in the range of 167 to 168 °C.

`N[C@@H]1CN2C(=O)N(c3cc(Cl)cc(Cl)c3)C(=O)[C@@]2(Cc2ccc(Br)cc2)C1` came in with a melting point of 64.4 °C.

For `CCCCCCCCCCNC(=O)c1cc(NCCC(=O)O)c(CCC(=O)O)c(C(=O)NCCCCCCCCCC)c1`, the melting point lay within 139 to 141 °C.

`COC(=O)N1CCC[C@@H](OC)[C@@H]1CC(=O)Cn1cnc2ccc(C(F)(F)F)cc2c1=O` (relative stereo): the melting point is 137 to 140 °C.

The compound `CC(=O)C1CCC2C3CCC4CC(O)C(N5CCOC(C)(C)C5)CC4(C)C3C(=O)CC12C` (configuration not stated) displayed a melting point of 163 °C.

`Cc1cc(CBr)cc(CBr)c1`: the melting point lay within 65 to 66 °C.

For `C=CCc1cc(C(C)=O)c(O)cc1OCCCCC#N`, the melting point stood at 54 °C.

In turn, `S=C1NCCCN1c1ccccc1` gave a melting point of 211 to 212 °C.

Regarding `CCc1[nH]n(C2CCCC2)c2nc(Cc3cccc(OC)c3)nc(=O)c1-2`, the melting point lay in the range of 148 to 150 °C.

With `CN(C)c1cc(S(=O)(=O)c2ccccc2)cc(Br)n1`, the melting point fell in the range of 128 to 130 °C.

The compound `O=C(CCc1cccnc1)Nc1cccc(-c2ccnc3c(C(=O)c4cccs4)cnn23)c1` showed a melting point of more than 200 °C.

The compound `COc1cc2c(cc1OCc1ccccc1)CCN(Cc1cccc([N+](=O)[O-])c1)C2` showed a melting point of 109 to 110 °C.

Compound `COC(=O)c1cc([N+](=O)[O-])c(O)c([N+](=O)[O-])c1` had a melting point of 110 to 115 °C.

Consider `COc1ccc(OC)c(S(=O)(=O)c2ccc(Cl)cc2NC(=O)N[C@@H](Cc2ccc(NC(=O)c3c(Cl)cccc3Cl)cc2)C(=O)O)c1`, for which the melting point was 180 °C.

In the case of `COc1cc2cc(C(=O)N3CC(CCl)c4c3cc(N3C(=O)c5ccccc5C3=O)c3ncccc43)[nH]c2c(OC)c1OC` (configuration not stated), the melting point lay in the range of 189 to 191 °C.

The compound `N#Cc1cnc2cc(F)c(OCc3ccccc3)cc2c1Cl` registered a melting point of 159 to 160 °C.

`COc1ccc(O[C@H](C)C(=O)O)c(C(=O)c2ccc(OCc3nc(-c4ccccc4)oc3C)cc2)c1` yielded a melting point of 119 to 120 °C.

`COC(=O)c1ccc(SC)cc1N` registered a melting point of 57 to 59 °C.

`CC(C)(C)ONC(=O)[C@H]1CNCCN1C(=O)OC(C)(C)C`: the melting point lay in the range of 113 to 114 °C.

In the case of `COc1cnc(Cl)c(C(=O)O)c1`, the melting point was 169 to 170 °C.

The compound `COc1ccc(Nc2ccc(Nc3ncnc4cc(-c5cccs5)sc34)cc2)cc1` displayed a melting point of 231 to 240 °C.

On to `CN1C(=O)CC[C@]2(C)c3ccc(-c4ccc5ncsc5c4)cc3CC[C@@H]12`, for which the melting point lay within 183 to 187 °C.

In turn, `C=Cc1cc(CNC(=O)C#Cc2ccc(C(C)(C)C)cc2)cc(F)c1NS(C)(=O)=O` had a melting point of 155 to 157 °C.

Compound `Cc1ccc(S(=O)(=O)OCC2Cc3cc(C)c4c(c3O2)CCC4)cc1` (configuration not stated) gave a melting point of 61 to 64 °C.

`O=C(Nc1ccc2[nH]ncc2c1)O[C@H](c1ccc(Cl)c(Cl)c1)[C@H]1CCCCN1` registered a melting point of 210 °C.

For `CCn1c(CO)nc(C(C)C)c1Sc1cc(F)cc(F)c1`, the melting point is 102 to 104 °C.

The compound `N#Cc1cnc2sc(CCC(=O)O)cc2c1Nc1ccc2[nH]ccc2c1` came in with a melting point of 255 °C.

Regarding `CC1(C)COc2ccc(F)cc2C(O)(c2ccccn2)C1` (configuration not stated), the melting point turned out to be 110 °C.

`CCC(=O)Nc1cc(C(C)(C)C)on1`: the melting point was in the range of 95 to 96 °C.

As to `CCOC(=O)c1c(N(C)C)cc(C)c([N+](=O)[O-])c1Cl`, the melting point came to 76 °C.

Compound `C=CCOc1cc(N2C(=O)C3CCCCN3C2=O)c(F)cc1C#N` (configuration not stated) returned a melting point of 132 °C.

As to `CCn1cc(C(=O)O)c(=O)c2cc(Cl)c(N3CCCC3)cc21`, the melting point was found to be 325 °C.

In the case of `O=c1[nH]c2ccccc2n1C1CCN(CC(O)COc2ccc(F)cc2)CC1` (configuration not stated), the melting point lay in the range of 175 to 176 °C.

In turn, `Cc1c(-c2ccc(O)cc2)n(Cc2ccc(OCCN3C[C@@H]4CC[C@H]3C4)cc2)c2ccc(O)cc12` yielded a melting point of 125 to 130 °C.

`CCCc1c(OCCCOc2c(C(C)=O)ccc(OCC(=O)OCC)c2CCC)ccc(C(C)=O)c1O` displayed a melting point of 45 to 46 °C.

`CCOC(=O)C1=C(N)NC(C)=CC1c1ccccc1C` (configuration not stated) showed a melting point of 159 °C.

Compound `O=C(c1ccc(Cl)cc1)C(Br)CCCl` (configuration not stated) showed a melting point of 73 °C.

In the case of `CS(=O)Cc1cccc(-c2nc(=O)c3ccccc3s2)n1` (configuration not stated), the melting point lay in the range of 184 to 186 °C.

Take `COc1ccc(N2CCN(c3ccc(F)cc3)C(=O)C2)c(-c2ccc(N(C)C)cc2)n1`: the melting point was 158 to 164 °C.

As to `COc1cc2ncnc(N3CCN(C(=O)NCCc4ccc(Cl)cc4)CC3)c2cc1OC`, the melting point was 177 to 178 °C.

Turning to `CC(=O)N(c1nc(N)no1)c1c(Cl)cccc1Cl`, the melting point fell in the range of 164 to 165 °C.

As for `CC(C)(C)OC(=O)N[C@H](c1ccc(Cl)cc1)[C@H](c1ccc(Cl)cc1)[N+](=O)[O-]`, the melting point lay within 172 to 174 °C.

`ClCc1cc2cccnc2s1` displayed a melting point of 47 to 49 °C.

`Cc1nc(N2CCc3ccccc3CC2)c(C#N)c(=O)n1NCC(F)(F)F` displayed a melting point of 144 to 146 °C.

As for `O=C(Nc1ccccc1)c1c(C(=S)Nc2ccccc2)cccc1-c1ccccc1`, the melting point fell in the range of 150 to 152 °C.

`COc1ccc(CCN(C)CCc2ccc(NC(=O)c3cccc4c(=O)c5cccc(OC)c5[nH]c34)cc2)cc1OC`: the melting point was found to be 179 °C.

As to `CCn1cc(C(=O)O)c(=O)c2cc(F)c(N3CCN(C)C(C)C3)cc21` (configuration not stated), the melting point lay within 244 to 246 °C.

`O=C(O)C1=C(c2ccccc2)c2cc(Cl)ccc2OC1C(F)(F)F` (configuration not stated) had a melting point of 226 to 227 °C.

For `O=C(Nc1ccc(N2CCNCC2)c(C(F)(F)F)c1)c1ccc(F)c(OCc2cncc3ccccc23)c1`, the melting point was in the range of 103 to 107 °C.

Turning to `COc1ccc(C(=O)c2cccc(C#N)c2)cc1`, the melting point is 85 to 88 °C.

In the case of `O=C(NC1CCN(CCc2ccncc2)CC1)c1ccccc1`, the melting point fell in the range of 193 to 195 °C.

The compound `CCOc1ccc(OCCOCCOC)c2c1C(=O)N(CSc1ccccc1)S2(=O)=O` came in with a melting point of 73 to 75 °C.

On to `CCOC(=O)COC(=O)c1cc(-n2nc3ccc(Cl)cn3c2=O)c(F)cc1Cl`, for which the melting point is 62 to 65 °C.

`Cc1nc2cc(N(C)C(=O)c3ccc(Cl)cc3Cl)ccc2n1C` returned a melting point of 245 to 247 °C.

Consider `COc1cccc(Cn2cnc3c(-c4ccco4)ncnc32)c1`, for which the melting point fell in the range of 138 to 139 °C.

Compound `CCN1C(=O)C(C)=C2C[C@@]3(C)C(=C[C@@H](OC)[C@H](O)[C@@H]3C)C=C21` yielded a melting point of 151 to 154 °C.

Take `CCN(CC)c1nc(N)nc(-c2ccc(Cl)c(Cl)c2)n1`: the melting point was in the range of 201 to 204 °C.

The compound `COc1ccc2[nH]cc(C3CCN(CCCCN4C(=O)CC5(CCCC5)CC4=O)CC3)c2c1` displayed a melting point of 150 °C.

As to `FC(F)=C(F)CCSc1nc(-c2ccc(Cl)cc2)no1`, the melting point is 49 to 52 °C.

Take `O=C(Oc1ccc(Oc2ccc(C(F)(F)F)cn2)cc1)N1CCN(CCc2cccnc2)CC1`: the melting point lay within 173 to 179 °C.

Compound `CC(C)n1nc(-c2sc(NC(=O)c3ccccc3)nc2-c2ccc(F)cc2)ccc1=O` registered a melting point of 228 to 230 °C.

The compound `CCOc1ccc2c(-c3ccccc3)c([N+](=O)[O-])oc2c1` yielded a melting point of 109 to 111 °C.

Turning to `Nc1ccc(NC(=O)[C@H](Cc2ccccc2)NC(=O)c2ccc(-c3nnn[nH]3)cc2)cc1`, the melting point was 137 °C.

In turn, `CN1C(=O)CN(CCC(=O)O)C1=O` returned a melting point of 109 °C.

Compound `O=C1CC2(CCCC2)CC(=O)N1c1ccncc1` returned a melting point of 208 to 211 °C.

Consider `CCN(CC)c1ccc(C2(N(c3ccc(N(C)C)cc3)c3ccc(N(C)C)cc3)OC(=O)c3ccccc32)c(C)c1` (configuration not stated), for which the melting point fell in the range of 67 to 83 °C.

The compound `CNCc1cn(S(=O)(=O)c2ccccc2)c(-c2cccnc2F)c1F` returned a melting point of 128 °C.

In the case of `Nc1cc(C(=O)c2ccc(C(=O)c3ccc(F)c(N)c3)cc2)ccc1F`, the melting point lay within 220 to 221 °C.

`CC(C)(C)c1cc(S[C@@H]2CCCC[C@H]2O)cc(C(C)(C)C)c1O` (relative stereo) registered a melting point of 91 °C.

In the case of `N#CC1=C(C2CC(=O)N(Cc3ccccc3)C2)Nc2n[nH]cc2C1c1ccccc1Cl` (configuration not stated), the melting point is more than 230 °C.

`Cc1csn(-c2ccc(Cl)c(Cl)c2)c1=O` yielded a melting point of 160 to 161 °C.

Take `CCn1c(=O)sc2cc(N3C[C@H](C(=O)NC)OC3=O)ccc21`: the melting point fell in the range of 227 to 229 °C.

In turn, `CON(C)C(=O)Nc1ccc(OCCc2cccc(C)n2)cc1` came in with a melting point of 96 to 97 °C.

Compound `O=C(Nc1cccc(F)n1)Nc1cccc2c1C1CCCCN1C2=O` (configuration not stated) had a melting point of 254 °C.

On to `COc1ccc(-c2nc(N(C)C)c3c(C)c(C#N)sc3n2)cc1`, for which the melting point lay in the range of 123 to 125 °C.

On to `Cc1ccc(C(=O)O)c(S(C)(=O)=O)c1`, for which the melting point stood at 174 °C.

In turn, `COC(=O)CNc1cc(F)cc(F)c1` returned a melting point of 75 to 77 °C.

As to `CN1CCN(C2=Nc3cc(Cl)ccc3Oc3cscc32)CC1`, the melting point is 180 to 182 °C.
